Drawing on ChEMBL document CHEMBL5528053, “Discovery of Novel Isoquinoline Analogues as Dual Tubulin Polymerization/V-ATPase Inhibitors with Immunogenic Cell Death Induction” (J Med Chem, 2024), this text covers inhibition, Activity and IC50 for one compound.

Series [1] has as its system PC-3. The experiment in a line: Inhibition of V-ATPase activity in lysosomes of human PC-3 cells assessed as decrease in fluorescence at 50 to 200 nM incubated for 24 hrs by Lyso tracker red staining based inverted fluorescent microscopic analysis. It is filed as subcellular. Particulars: Lysosome, dose 50-200 nM.
A short description of series [2]: Toxicity in ICR mouse assessed as effect on BUN level at 10 mg/kg, ip measured for 14 days. Particulars: in vivo, 336 h, time 14 day. It is filed as organism-based.
Series [3] deals with T1, Tubulin (Homo sapiens) (UniProt P68371+Q9H4B7+P0DPH7+P68366+Q13509+Q71U36+P04350+Q3ZCM7+P07437+P68363+Q9BQE3+Q6PEY2+Q13885+Q9BVA1+Q9BUF5). The experiment in a line: Inhibition of tubulin polymerization (unknown origin) assessed as reduction in intracellular AC-alpha-tubulin at 50 to 200 nM measured for 6 hrs by […] Western blot analysis. It is filed as cell-based. As to conditions: PC-3, dose 50-200 nM. For orientation: Immunoblotting shows a protein as a band on a membrane.

Series [4] has as its system PC-3. The experiment in a line: Inhibition of autophagy in human PC-3 cells assessed as increase in number of autophagosomes at 50 to 200 uM measured after 3 hrs by immunofluorescence imaging based analysis. It is filed as functional, cell-based. As to conditions: dose 50-200 µM.
Series [5] has as its system PC-3. Description: Inhibition of V-ATPase activity in human PC-3 cells at 800 nM measured after 24 hrs by colorimetric assay relative to control. It is filed as cell-based.
Series [6] has as its system PC-3. Description: Induction of cell cycle arrest in human PC-3 cells assessed as accumulation of cells at G1 phase at 50 nM incubated for 24 hrs by flow cytometry analysis (reference value: 49.4%). It is filed as functional. On the technique in general: In flow cytometry, cells or beads pass a laser one at a time.
Series [7] relates to PC-3. The experiment in a line: Induction of immunogenic cell death in human PC-3 cells assessed as increase in CRT translocation to cell surface at 50 to 200 nM measured after 12 hrs by DAPI staining based analysis. It is filed as functional. As to conditions: dose 50-200 nM.
The subject of series [8] is PC-3. Description: Upregulation of detyrosinated-alpha tubulin expression in human PC-3 cells incubated for 24 hrs by Western blot analysis. It is filed as functional, cell-based. As to conditions: dose 50-200 nM.
Series [9] in a line: Antitumor immunity against mouse RM1 cells homografted in C57BL/6 mouse model assessed as increase in tumor infiltrating helper T lymphocytes at 5 mg/kg, iv administered every two days for 14 days by flow cytometry analysis (reference value: 6.59%). It is filed as functional. Particulars: time 14 day.
The subject of series [10] is PC-3. The experiment in a line: Induction of apoptosis in human PC-3 cells assessed as late apoptotic cells at 100 nM measured after 24 hrs by annexin V-FITC and PI staining based flow cytometry analysis (reference value: 2.37%). It is filed as functional.
The subject of series [11] is PC-3. Description: Induction of apoptosis in human PC-3 cells assessed as increase in p-bim-EL level at 50 to 200 nM incubated for 24 hrs by Western blot analysis. It is filed as functional, cell-based. As to conditions: dose 50-200 nM.
The subject of another series is Cell membrane. The experiment in a line: Induction of mitochondrial membrane potential loss in human PC-3 cells assessed as increase in green fluorescence at 50 to 200 nM incubated for 24 hrs by JC-1 staining based confocal microscopy analysis. Particulars: dose 50-200 nM.
Series [12] has as its system RM1. The experiment in a line: Antitumor immunity against mouse RM1 cells homografted in C57BL/6 mouse model assessed as increase in tumor infiltrating helper T lymphocytes in spleen at 5 to 10 mg/kg, iv administered every two days for 14 days by flow cytometry analysis. It is filed as functional, organism-based. As to conditions: dose 5-10 mg/kg, time 14.0 day.
Series [13] has as its system PC-3. Description: Induction of cell cycle arrest in human PC-3 cells assessed as reduction in cyclin B1 at 50 to 200 nM incubated for 24 hrs by DAPI staining based analysis. Particulars: dose 50-200 nM. It is filed as functional.
For series [14], the system named is PC-3. Description: Induction of cell cycle arrest in human PC-3 cells assessed as accumulation of cells at G1 phase at 200 nM incubated for 24 hrs by flow cytometry analysis (reference value: 49.4%). It is filed as functional.
Series [15] concerns RM1. Description: Anticancer activity against mouse RM1 cells assessed as increase in CRT expression at 400 nM measured after 24 hrs by flow cytometry analysis. It is filed as functional, cell-based.
The subject of series [16] is PC-3. Description: Induction of immunogenic cell death in human PC-3 cells assessed as effect on CRT expression at 50 to 200 nM. Particulars: dose 50-200 nM. It is filed as functional, cell-based.
For series [17], the target named is T1, Tubulin (Homo sapiens). The experiment in a line: Disruption of microtubule network in human PC-3 cells at 50 to 200 nM incubated for 6 to 24 hrs by immunofluorescence staining based confocal microscopy analysis relative to control. It is filed as cell-based. Particulars: dose 50-200 nM, time 6-24 hrs.
For series [18], the system named is PC-3. The experiment in a line: Induction of cell cycle arrest in human PC-3 cells assessed as accumulation of cells at S phase at 200 nM incubated for 24 hrs by flow cytometry analysis (reference value: 31.3%). It is filed as functional.
Series [19] can be described thus: Antitumor immunity against mouse RM1 cells homografted in C57BL/6 mouse model assessed as increase in tumor infiltrating lymphocytes at 10 mg/kg, iv administered every two days for 14 days by flow cytometry analysis (reference value: 5.26%). It is filed as functional. As to conditions: time 14 day.
In series [20] the test system is PC-3. The experiment in a line: Upregulation of intracellular eIF2alpha expression at […] residues in human PC-3 cells incubated for 24 hrs by DAPI staining based analysis. It is filed as functional, cell-based. As to conditions: dose 50-200 nM.
For another series, the system named is DU-145. Description: Antiproliferative activity against human DU-145 cells assessed as inhibition of cell growth after 72 hrs by MTT assay. It is filed as functional, cell-based. Particulars: DU-145, 72 h.

Structures are written as SMILES. Calls of active or inactive are those of the source. The rule behind the calls is not given here.

As a reminder, the inhibition is the drop in the measured response relative to a control, in per cent. What is called IC50 is the concentration at which inhibition is half-maximal. Take `COc1cc(-c2nc(C(N)=O)cc3cc4c(cc23)OCCO4)cc(Br)c1OC`: the inhibition result in the series on PC-3 [1], at Tubulin (Homo sapiens) [3] and with PC-3 [4] was “Active” each time. Further, the Activity result in series [2] is “Non-Toxic”; with PC-3 [6] it was 39.8%; with PC-3 [8], “Dose-Dependent Effect”; in series [9] it was 10.9%; in the series with PC-3 [10] it was 10.3%; with PC-3 [14], 17.9%. Also, the Activity in the series on PC-3 [18] is 17.1%; in series [19] it was 8.03%; with PC-3 [20] it was “Dose-Dependent Effect”. Further, the inhibition with PC-3 [5] was 77.4%. The outcome in the series on PC-3 [7], in the series with PC-3 [11], in the series on Cell membrane, in the series on RM1 [12], in the series with PC-3 [13] and in the series on RM1 [15] was Active. Also, the result in the series on PC-3 [16] and at Tubulin (Homo sapiens) [17] was Active. Moreover, the IC50 with DU-145 was determined as 110 nM.
